# Legend:
# [1] = test system: Candida albicans ATCC 18804; assay: broth microdilution MIC/MFC; assay type: cell-based; details: for MFC: ATCC18804, C. albicans ATCC 18804, read-out: MFC; for MIC: ATCC18804, C. albicans ATCC 18804, read-out: MIC
# [2] = test system: Candida albicans ATCC 10231; assay: cup-plate agar diffusion method, inhibition zone diameters; assay type: cell-based; details: ATCC10231, C. albicans ATCC 10231, 1 mg/mL in DMSO, 20 µg/well, mean of three ± SD, read-out: inhibition zone diameters
# [3] = test system: Candida parapsilosis ATCC 22019; assay: broth microdilution MIC/MFC; assay type: cell-based; details: Lodderomyces parapsilosis, ATCC22019, C. parapsilosis ATCC 22019; for MFC: read-out: MFC; for MIC: read-out: MIC
# [4] = test system: Candida albicans ATCC 10231; assay: broth microdilution MIC/MFC; assay type: cell-based; details: for MFC: ATCC10231, C. albicans ATCC 10231, read-out: MFC; for MIC: ATCC10231, C. albicans ATCC 10231, read-out: MIC
# [5] = test system: Candida krusei ATCC 6258; assay: broth microdilution MIC/MFC; assay type: cell-based; details: Pichia kudriavzevii, ATCC6258, C. krusei ATCC 6258; for MFC: read-out: MFC; for MIC: read-out: MIC
# [6] = lipophilicity by RP-TLC with PCA; assay type: physicochemical; set-up: key to P1 / P2: PCA scores of compounds computed from Rf data; details: for RM0: RP-TLC C18, water-i-propanol 45-65%, intercept, RM extrapolated to 0% organic modifier (lipophilicity); for b: RP-TLC regression slope (specific hydrophobic surface area); for P1: score of first principal component of Rf data, low P1 = highly lipophilic; for P2: score of second principal component of Rf data
# Protocol: The lipophilic character of twenty thiazolin-4-one derivatives was assessed with the help of the principal component analysis (PCA) based on the reversed-phase thin-layer chromatography (RP-TLC) data.
# The chromatographic behavior of the test compounds was studied on C18 silicagel bonded 60 RP-180F254S TLC (20 × 20 cm) plates, purchased from Merck (Darmstadt, Germany). The test compounds’ solutions (1 mg/mL) were prepared by dissolving the samples in DMSO (Merck, Darmstadt, Germany). The plates were manually spotted with 3 µL aliquots of each solution at 10 mm from the base and 5 mm from the edge of the plate, leaving a 10 mm distance between successive spots, and developed by the ascending technique, without preconditioning. Chromatography was performed in a normal developing chamber at room temperature (~24 °C), the developing distance being of 9 cm. The solvent system used as mobile phase consisted of a water-i-propanol mixture, with a varying content of organic modifier (i-propanol—concentration ranged between 45% and 65% (v/v), with 5% vol. increments). Before the development, the chamber was saturated with the mobile phase for 15 min. After being developed, the dried plates were visually inspected under the UV light (λ = 254 nm), each spot was clearly marked and its distance was manually measured in order to calculate the Rf values. The spots of the compounds 3f, 10 and 11 were not visible in UV light, thus their Rf values could not be calculated, therefore they were excluded from this assay.
# Based on the Rf values, one of the most common lipophilic estimator, meaning the isocratic retention factor RM was calculated using the Bate-Smith and Westall equations [40].
# RP-TLC provides retention data in the form of Rf and the corresponding RM values (Equation (2)) that can be used to derive chromatographic descriptors for estimating lipophilicity: RM0, b and PCA. The most popular lipophilicity descriptor estimated by this method is RM and it is derived from the retention factor (Rf) according to the following formula: RM = log[(1/Rf) − 1] (2) where Rf is calculated on the basis of migration distance of a compound and the solvent front.
# As RM value (related to the molecular lipophilicity) depends linearly on the concentration of the organic modifier in the mobile phase, the value is extrapolated to pure water as mobile phase. In order to increase the accuracy of the lipophilicity determination, the RM values extrapolated to zero organic modifier concentration (RM0) have been calculated from the linear correlation between the RM values and the concentration of the organic component of the mobile phase: RM = RM0 + bc (3) where RM0 is the lipophilicity estimation parameter, RM is the retention of the solute, b is the slope, and c is the concentration of the mobile phase organic modifier (i-propanol).
# The intercept (RM0) in Equation (3) represents the extrapolated RM values at 0% organic modifier.
# PCA was performed on the obtained retention parameters with the help of XL-STAT extension. […] PCA gave the coordinates (scores) of the studied compounds and also the loadings of the variables (solvents) on the principal components.
Compound,MFC [1] [µg/mL],MIC [1] [µg/mL],zone of inhibition at 1000 µg/mL [2] [mm],melting point [°C],MFC [3] [µg/mL],MIC [3] [µg/mL],MFC [4] [µg/mL],MIC [4] [µg/mL],MFC [5] [µg/mL],MIC [5] [µg/mL],RM0 [6],b [6],P1 [6],P2 [6]
"O=C1N=C(Nc2cccc3ccccc23)SC1=Cc1cccc(Cl)c1 [Compound 9a, 5-(3-Chlorobenzylidene)-2-(naphthalen-1-ylamino)thiazol-4(5H)-one]",7.81,1.95,18 ± 1,140,0.97,0.48,7.81,3.9,0.97,0.48,2.5309,−4.1292,−1.227,−0.239
"C=CCNC1=NC(=O)C(=Cc2ccc(O)cc2)S1 [Compound 3h, 2-(Allylamino)-5-(4-hydroxybenzylidene)thiazol-4(5H)-one]",0.97,0.48,20 ± 0.5,338,0.97,0.12,0.48,0.24,0.97,0.24,1.1465,−2.6897,2.905,0.056
"C=CCNC1=NC(=O)C(=Cc2ccc(O)c(OC)c2)S1 [Compound 3g, 2-(Allylamino)-5-(4-hydroxy-3-methoxybenzylidene)thiazol-4(5H)-one]",0.97,0.48,22 ± 0.2,240,0.48,0.24,1.95,0.48,1.95,0.48,0.6734,−1.9546,3.365,0.453
"O=C1N=C(Nc2ccccc2)SC1=Cc1cccc(Cl)c1 [Compound 6a, 5-(3-Chlorobenzylidene)-2-(phenylamino)thiazol-4(5H)-one]",15.6,7.81,20 ± 0.5,278 to 280,3.9,3.9,31.2,15.6,3.9,7.81,2.1738,−3.9258,0.485,−0.534
"O=C1N=C(Nc2cccc3ccccc23)SC1=Cc1ccc([N+](=O)[O-])cc1 [Compound 9c, 2-(Naphthalen-1-ylamino)-5-(4-nitrobenzylidene)thiazol-4(5H)-one]",3.9,1.95,20 ± 0.5,152,0.06,0.03,3.9,1.95,1.95,0.97,2.7789,−4.1555,−2.722,0.228
"O=C1N=C(Nc2ccccc2)SC1=Cc1coc2ccc(Cl)cc2c1=O [Compound 6e, 5-((6-Chloro-4-oxo-4H-chromen-3-yl)methylene)-2-(phenylamino)thiazol-4(5H)-one]",3.9,0.97,16 ± 1,356,0.97,0.48,3.9,1.95,3.9,0.97,2.22,−3.9066,0.079,−0.443
"C=CCNC1=NC(=O)C(=Cc2cccc(Cl)c2)S1 [Compound 3a, 2-(Allylamino)-5-(3-chlorobenzylidene)thiazol-4(5H)-one]",31.2,15.6,20 ± 0.5,198,15.6,7.81,31.2,31.2,31.2,15.6,2.0801,−3.6152,−0.090,−0.268
"C=CCNC1=NC(=O)C(=Cc2ccc([N+](=O)[O-])cc2)S1 [Compound 3c, 2-(Allylamino)-5-(4-nitrobenzylidene)thiazol-4(5H)-one]",31.2,31.2,18 ± 1,265,31.2,15.6,31.2,31.2,15.6,15.6,1.7553,−3.314,1.049,−0.259
"O=C1N=C(Nc2ccccc2)SC1=Cc1csc(-c2ccccc2)n1 [Compound 6d, 2-(Phenylamino)-5-((2-phenylthiazol-4-yl)methylene)thiazol-4(5H)-one]",15.6,7.81,20 ± 1,287 to 289,7.81,3.9,7.81,3.9,15.6,7.81,2.1996,−3.8092,−0.168,−0.359
